Experimental data taken from ChEMBL document CHEMBL1201862, “PubChem BioAssay data set” (2004).
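Where inhibition never reached the appropriate level, the endpoint shown equals the highest concentration tested. Otherwise, values were interpolated linearly from a five-concentration, 48-hour dose response in 96-well plates. GI50 is the concentration that inhibits growth by half.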 Activity calls are given as the source filed them. Rule as the data show it: active = GI50 up to about 1.1 µM and inactive = higher.

Legend:
Assay in all cases: NCI tumour cell line growth inhibition, 48 h
TK-10 = test system: TK-10
SK-OV-3 = test system: SK-OV-3
SF-268 = test system: SF-268
K562 = test system: K562
SW-620 = test system: SW-620
NCI-H522 = test system: NCI-H522
DU-145 = test system: DU-145
HL-60 = test system: HL-60
HT-29 = test system: HT-29
IGROV-1 = test system: IGROV-1
ACHN = test system: ACHN
EKVX = test system: EKVX
SNB-75 = test system: SNB-75
SF-295 = test system: SF-295
T47D = test system: T47D
M14 = test system: M14
MCF7 = test system: MCF7
RPMI-8226 = test system: RPMI-8226
HOP-92 = test system: HOP-92

| SMILES | GI50 (TK-10) | GI50 (SK-OV-3) | GI50 (SF-268) | GI50 (K562) | GI50 (SW-620) | GI50 (NCI-H522) | GI50 (DU-145) | GI50 (HL-60) | GI50 (HT-29) | GI50 (IGROV-1) | GI50 (ACHN) | GI50 (EKVX) | GI50 (SNB-75) | GI50 (SF-295) | GI50 (T47D) | GI50 (M14) | GI50 (MCF7) | GI50 (RPMI-8226) | GI50 (HOP-92) |
| --- | --- | --- | --- | --- | --- | --- | --- | --- | --- | --- | --- | --- | --- | --- | --- | --- | --- | --- | --- |
| CC(=O)O[C@H]1C(=O)[C@@]2(C)[C@H]([C@H](OC(=O)c3ccncc3)[C@]3(O)C[C@H](OC(=O)[C@H](O)[C@@H](NC(=O)c4ccccc4)c4ccccc4)C(C)=C1C3(C)C)[C@]1(OC(C)=O)CO[C@@H]1C[C@@H]2O | > 25 µM (inactive) | 14.2 µM (inactive) | > 11.6 µM (inactive) | 0.953 µM (active) | 1.56 µM (inactive) | 1.77 µM (inactive) | 11.6 µM (inactive) | 0.471 µM (active) | 1.42 µM (inactive) | 2.44 µM (inactive) | > 22.3 µM (inactive) | > 25 µM (inactive) | 3.56 µM (inactive) | > 16.9 µM (inactive) | > 5.94 µM (inactive) | 7.06 µM (inactive) | 0.918 µM (active) | 0.881 µM (active) |  |
| CCOc1ccc(/C=N/[N+](C)(C)C)cc1OCC | > 10 µM (inactive) | > 10 µM (inactive) | > 10 µM (inactive) | > 10 µM (inactive) | > 10 µM (inactive) | > 10 µM (inactive) | > 10 µM (inactive) |  | > 10 µM (inactive) | > 10 µM (inactive) | > 10 µM (inactive) |  | > 10 µM (inactive) | > 10 µM (inactive) | > 10 µM (inactive) | > 10 µM (inactive) | > 10 µM (inactive) | > 10 µM (inactive) | > 10 µM (inactive) |
| COc1cc(/C=C2\N=C(c3ccccc3)N(c3nc4c(Cl)cc(Cl)cc4s3)C2=O)ccc1O | 39.9 µM (inactive) | 55.7 µM (inactive) | 30.1 µM (inactive) | 24.8 µM (inactive) | 32.4 µM (inactive) |  | 34.8 µM (inactive) | 16.3 µM (inactive) | 27.7 µM (inactive) | 29.1 µM (inactive) | 25.8 µM (inactive) | 17.9 µM (inactive) | 39.3 µM (inactive) | 34.4 µM (inactive) | 24.8 µM (inactive) | 40.5 µM (inactive) | 28.1 µM (inactive) | 8.53 µM (inactive) | 21.3 µM (inactive) |
| C[C@]12CC(c3ccccc3O1)C(C(=O)Nc1nc(C34CC5CC(CC(C5)C3)C4)cs1)C(=O)N2 (stereo partly specified) |  | > 100 µM (inactive) | > 100 µM (inactive) | > 100 µM (inactive) | > 100 µM (inactive) |  | > 100 µM (inactive) | > 100 µM (inactive) | > 100 µM (inactive) | 75 µM (inactive) | > 100 µM (inactive) | > 100 µM (inactive) | > 100 µM (inactive) |  | > 100 µM (inactive) | > 100 µM (inactive) | > 100 µM (inactive) | > 100 µM (inactive) | > 100 µM (inactive) |
| S=C(Nc1c2c(nc3ccccc13)CCCC2)Nc1c2c(nc3ccccc13)CCCC2 | > 100 µM (inactive) | > 100 µM (inactive) | > 100 µM (inactive) | > 100 µM (inactive) | > 100 µM (inactive) | > 100 µM (inactive) | > 100 µM (inactive) |  | > 100 µM (inactive) | > 100 µM (inactive) | > 100 µM (inactive) | > 100 µM (inactive) | > 100 µM (inactive) | > 100 µM (inactive) | > 100 µM (inactive) | > 100 µM (inactive) | > 100 µM (inactive) | > 100 µM (inactive) |  |
| COc1ccccc1/N=N/C(=N\NC(=O)c1ccc(C)cc1)c1ccc(N(CCC#N)CCC#N)cc1C | > 100 µM (inactive) | 32.5 µM (inactive) | 38.1 µM (inactive) | 37.8 µM (inactive) | 47.5 µM (inactive) |  | 32.6 µM (inactive) |  | 39.7 µM (inactive) | 33.7 µM (inactive) | 89.1 µM (inactive) | > 100 µM (inactive) | 24.1 µM (inactive) | 48.5 µM (inactive) | 20.8 µM (inactive) | 38.2 µM (inactive) | 34.6 µM (inactive) | 40.4 µM (inactive) | > 100 µM (inactive) |
| Fc1ccc(C(OCCN2CCC3CCC(C2)N3C/C=C/c2cccs2)c2ccc(F)cc2)cc1 (stereo unspecified) | 11.1 µM (inactive) | 12.9 µM (inactive) | 12.2 µM (inactive) |  | 5.98 µM (inactive) | 5.02 µM (inactive) | 12.3 µM (inactive) |  | 1.37 µM (inactive) | 10.1 µM (inactive) | 11.8 µM (inactive) | 4.41 µM (inactive) | 14.7 µM (inactive) | 10.5 µM (inactive) | 3.56 µM (inactive) | 4.25 µM (inactive) | 7.69 µM (inactive) | 0.0133 µM (active) | 6.25 µM (inactive) |
| COc1ccc(-c2nnc3n(C)c4ccccc4n3c2=O)cc1 | 89.1 µM (inactive) |  | 29.6 µM (inactive) |  | > 100 µM (inactive) | 77.8 µM (inactive) | > 100 µM (inactive) | > 100 µM (inactive) | > 100 µM (inactive) | 51.5 µM (inactive) | 63 µM (inactive) | > 100 µM (inactive) | 20.8 µM (inactive) | 29.7 µM (inactive) | > 100 µM (inactive) | > 100 µM (inactive) | > 100 µM (inactive) |  | > 100 µM (inactive) |
